Results published in patent publication US20160046616A1, “NRF2 SMALL MOLECULE INHIBITORS FOR CANCER THERAPY” (THE JOHNS HOPKINS UNIVERSITY, priority 2013, published 2016).
Where two headings read alike, the source gives them in different places.

Columns and labels:
[1] = tested on: A549 NRF2-ARE-Fluc stable cell line; experiment: A549 Nrf2 assay: NRF2-ARE firefly luciferase reporter gene assay; type: cell-based; settings: Homo sapiens, read-out: Potency of inhibition, A549
Excerpt: A549, the parental cell line, is a non-small-cell lung cancer (NSCLC) cell line with loss-of-function (LOF) Keap1 activity, thus NRF2 transcription factor constitutively translocates into the nucleus to activate the expression of downstream target genes of NRF2. A firefly luciferase reporter (Fluc) construct driven by a minimal promoter of NRF2-specific anti-oxidant responsive element (ARE) is stably expressed in the A549 cells. Compounds that reduce the translocation of NRF2 into the nucleus or prevent the interaction between NRF2 and ARE will lead to a decrease in luciferase activity.
The final concentration of DMSO was maintained at 0.46%. Control compounds Budesonide and Staurosporine were both added at a concentration of 2 mM and Budesonide also was added as a 1:10 titration, starting at 200 μM, to achieve dose-response. After an 18-24 hour incubation at 37° C., 95% humidity, and 5% CO2, 1 μL of 5× CellTiter-Fluor non-lytic cell viability assay reagent (Promega, Madison, Wis.) was added into the each well of the plates. The plates were then incubated for 30 minutes at room temperature before they were read on a ViewLux plate imager (Perkin Elmer, Waltham, Mass.) using an excitation wavelength of 405 nm and an emission wavelength of 525 nm.
A cell based reporter assay approach was used for the identification of agents that could inhibit Nrf2 mediated gene expression (FIG. 1). A549-ARE-luciferase cells express the luciferase gene driven by a minimal promoter and an enhancer element containing an NRF2 binding site (Antioxidant Response Element, ARE).
(§1) Representative compounds were assayed to assess the potency of inhibition in an A549 NRF2-ARE-Fluc stable cell line (A549 Nrf2 assay), in an H838 NRF2-ARE-Fluc stable cell line (H838 Nrf2 assay), and in an H1437 NRF2-ARE-Fluc stable cell line (H1437 Nrf2 assay) (see Table 3).

[2] = tested on: H1437 NRF2-ARE-Fluc stable cell line; experiment: H1437 Nrf2 assay: NRF2-ARE firefly luciferase reporter gene assay; type: cell-based; settings: read-out: Potency of inhibition, H1437
Excerpt: H1437 is another NSCLC cell line with LOF Keap1 activity and constitutive translocation of NRF2 into the nucleus. A firefly luciferase reporter construct driven by a minimal promoter of NRF2-specific ARE is stably expressed in the H1437 cells. This cell line was used as a confirmation assay to make sure hits identified from primary screening and that passed counterscreen assays worked in different cell types with a constitutively active NRF2 pathway (deficiency in Keap1).
This assay was very similar to the primary assay except that the cell line was changed. […] The final concentration of DMSO was maintained at 0.46%. Control compounds Budesonide and Staurosporine were both added at a concentration of 2 mM and Budesonide was also added as a 1:10 titration, starting at 200 μM, to achieve dose-response. After an 18-24 hour incubation at 37° C., 95% humidity, and 5% CO2, 1 μL of 5× CellTiter-Fluor non-lytic cell viability assay reagent (Promega, Madison Wis.) was added into the each well of the plates. The plates were then incubated for 30 minutes at room temperature before they were read on a ViewLux plate imager (Perkin Elmer, Waltham Mass.) using an excitation wavelength of 405 nm and an emission wavelength of 525 nm.
as §1

[3] = Homo sapiens, NCI-H1437, H1437 NRF2-ARE-Fluc stable cell line

Compound | IC50 [1] | IC50 [2, 3] | IC50 ([2]; H1437 NRF2-ARE-Fluc stable cell line)
Cc1ccccc1S(=O)(=O)N1CCc2cc(-c3nc(NC(=O)Cc4cccc(F)c4)sc3C)ccc21 [Compound 124] | < 5 µM | – | < 5 µM
COc1cccc(CC(=O)Nc2nc(-c3ccc4c(c3)CCN4C(=O)c3ccccc3C)c(C)s2)c1 [Compound 6] | < 5 µM | < 5 µM | –
Cc1sc(NC(=O)Cc2ccc3c(c2)OCO3)nc1-c1ccc2c(c1)CCN2C(=O)c1ccnn1C [Compound 185] | < 5 µM | < 5 µM | –
Cc1cccc(Cc2cnc(NC(=O)c3ccn(-c4ccccc4)n3)s2)c1 [Compound 217] | 5 to 25 µM | 5 to 25 µM | –
Cc1ccccc1C(=O)N1CCc2cc(-c3nc(NC(=O)CC4CCNCC4)sc3C)ccc21 [Compound 73] | > 25 µM | 5 to 25 µM | –
Cc1sc(NC(=O)Cc2ccc3c(c2)OCO3)nc1-c1ccc2c(c1)CCN2C [Compound 26] | 5 to 25 µM | > 25 µM | –
NC(=O)c1ccc(N2CCN(S(=O)(=O)c3ccccc3)CC2)c([N+](=O)[O-])c1 [Compound 39] | < 5 µM | 5 to 25 µM | –
Cc1cccc(CC(=O)Nc2nc(-c3ccc4c(c3)CCN4S(=O)(=O)c3ccccc3C)c(C)s2)c1 [Compound 131] | 5 to 25 µM | 5 to 25 µM | –
O=C(Nc1ncc(Cc2ccc(C(F)(F)F)cc2)s1)c1ccc(-c2ccccc2)s1 [Compound 83] | > 25 µM | > 25 µM | –
Cc1ccccc1S(=O)(=O)N1CCc2cc(-c3nc(NC(=O)Cc4ccc(Cl)cc4)sc3C)ccc21 [Compound 135] | < 5 µM | 5 to 25 µM | –
O=C(Nc1ncc(Cc2ccccc2)s1)c1ccc(-c2cccc([N+](=O)[O-])c2)o1 [Compound 16] | 5 to 25 µM | 5 to 25 µM | –
COc1ccc(CC(=O)Nc2nc(-c3ccc4c(c3)CCN4C(=O)c3ccccc3C)c(C)s2)cn1 [Compound 112] | < 5 µM | < 5 µM | –
Nc1ccc(-c2cccc(NC(=O)Cc3ccccc3)n2)cc1 [Compound 80, N-(6-(4-aminophenyl)pyridin-2-yl)-2-phenylacetamide] | > 25 µM | > 25 µM | –
CN(C(=O)c1ccc(CN2CCc3ccccc3C2)cc1)c1ccc(S(=O)(=O)N2CCOCC2)cc1 [compound 225] | 5 to 25 µM | > 25 µM | –
Cc1ccccc1S(=O)(=O)N1CCc2cc(-c3nc(NC(=O)Cc4ccccn4)sc3C)ccc21 [Compound 127] | 5 to 25 µM | 5 to 25 µM | –
O=C(Nc1ncc(Cc2ccc(C(F)(F)F)cc2)s1)c1ccc(-c2ccccc2)o1 [Compound 19] | 5 to 25 µM | > 25 µM | –
O=C(Nc1ccc(S(=O)(=O)N2CCOCC2)cc1)c1ccc(CN2CCCCC2)cc1 [compound 179] | 5 to 25 µM | > 25 µM | –
O=C(Nc1ncc(Cc2ccc(Cl)cc2)s1)c1ccn(-c2ccccc2)n1 [Compound 224] | < 5 µM | < 5 µM | –
Cc1ccc(C(=O)Nc2ccc(S(=O)(=O)N3CCOCC3)cc2)cc1 [compound 51] | 5 to 25 µM | > 25 µM | –
CC(=O)N1CCN(S(=O)(=O)c2ccc(NC(=O)c3ccc(CN4CCc5ccccc5C4)cc3)cc2)CC1 [Compound 198] | < 5 µM | < 5 µM | –
CC1c2ccccc2CCN1Cc1ccc(C(=O)Nc2ccc(S(=O)(=O)N3CCOCC3)cc2)cc1 (stereo not shown) [Compound 230] | < 5 µM | < 5 µM | –

Next, values leading:

IC50 [1] | IC50 [2, 3] | IC50 ([2]; H1437 NRF2-ARE-Fluc stable cell line) | Compound
5 to 25 µM | < 5 µM | – | O=C(Nc1ncc(Cc2ccc(C(F)(F)F)cc2)s1)c1ccc(-c2ccccc2[N+](=O)[O-])o1 [Compound 18]
> 25 µM | > 25 µM | – | O=C(NC1CCCN(Cc2ccccc2)C1)c1ccc(-c2cccc([N+](=O)[O-])c2)o1 (stereo not shown) [Compound 103]
5 to 25 µM | < 5 µM | – | Cc1ccccc1C(=O)N1CCc2cc(-c3nc(NC(=O)Cc4cccc(OCCOCCOCCNC(=O)CCCC[C@@H]5SC[C@@H]6NC(=O)N[C@@H]65)c4)sc3C)ccc21 [Compound 240]
< 5 µM | < 5 µM | – | CC1Cc2ccccc2CN1Cc1ccc(C(=O)Nc2ccc([S+](=O)([O-])N3CCOCC3)cc2)cc1 (stereo not shown) [Compound 206]
5 to 25 µM | 5 to 25 µM | – | Cc1ccccc1C(=O)N1CCc2cc(N3CCCC(NC(=O)Cc4ccccc4)C3)ccc21 (stereo not shown) [Compound 97]
< 5 µM | 5 to 25 µM | – | O=C(Nc1ccc(S(=O)(=O)N2CCN(Cc3ccccc3)CC2)cc1)c1cnccn1 [Compound 34]
5 to 25 µM | 5 to 25 µM | – | Cc1ccccc1C(=O)N1CCc2cc(-c3nc(NC(=O)CC4CCN(C)CC4)sc3C)ccc21 [Compound 75]
> 25 µM | > 25 µM | – | O=C(O)c1ccc(CN2CCc3ccccc3C2)cc1 [Compound 90, 4-((3,4-dihydroisoquinolin-2(1H)-yl)methyl)benzoic acid]
< 5 µM | < 5 µM | – | COc1ccc(-c2cc(C)no2)cc1S(=O)(=O)N1CCN(c2ccc([N+](=O)[O-])cc2)CC1 [Compound 42]
5 to 25 µM | > 25 µM | – | O=C(Nc1ccc(C(=O)N2CCOCC2)cc1)c1ccc(CN2CCc3ccccc3C2)cc1 [compound 147]
> 25 µM | > 25 µM | – | O=C(Nc1ncc(Cc2ccc(C(F)(F)F)cc2)s1)c1ccco1 [Compound 15]
5 to 25 µM | 5 to 25 µM | – | Cc1ccccc1CCNC(=O)c1ccc(Cl)c(S(=O)(=O)N2CC(C)OC(C)C2)c1 (stereo not shown) [Compound 44]
5 to 25 µM | > 25 µM | – | Cc1ccc(C(=O)N2CCc3cc(-c4nc(NC(=O)Cc5ccc6c(c5)OCO6)sc4C)ccc32)cc1 [Compound 23]
< 5 µM | < 5 µM | – | CCOC(=O)N1CCN(S(=O)(=O)c2ccc(NC(=O)c3ccc(CN4CCc5ccccc5C4)cc3)cc2)CC1 [Compound 199]
5 to 25 µM | < 5 µM | – | Cc1ccccc1C(=O)N1CCc2cc(-c3nc(NC(=O)C(C)(C)C)sc3C)ccc21 [Compound 209]
< 5 µM | < 5 µM | – | Cc1ccccc1C(=O)N1CCc2cc(-c3nc(NC(=O)Cc4cccc(OCCOCCOCCNC(=O)OC(C)(C)C)c4)sc3C)ccc21 [Compound 237, tert-butyl (2-(2-(2-(3-(2-((5-methyl-4-(1-(2-methylbenzoyl)indolin-5-yl)thiazol-2-yl)amino)-2-oxoethyl)phenoxy)ethoxy)ethoxy)ethyl)carbamate]
5 to 25 µM | < 5 µM | – | CCN(C1CCCCC1)S(=O)(=O)c1ccc(S(=O)(=O)NCc2ccncc2)cc1 [Compound 33]
< 5 µM | < 5 µM | – | Cc1ccccc1S(=O)(=O)N1CCc2cc(-c3nc(NC(=O)Cc4cccnc4)sc3C)ccc21 [Compound 130]
< 5 µM | < 5 µM | – | Cc1ccccc1C(=O)N1CCc2cc(-c3nc(NC(=O)CN4CCN(C(=O)OC(C)(C)C)CC4)sc3C)ccc21 [Compound 69, tert-butyl 4-(2-((5-methyl-4-(1-(2-methylbenzoyl)indolin-5-yl)thiazol-2-yl)amino)-2-oxoethyl)piperazine-1-carboxylate]
< 5 µM | < 5 µM | – | O=C(Nc1ccc(S(=O)(=O)N2CCOCC2)cc1)c1ccc(CN2CCC(c3ccccc3)CC2)cc1 [Compound 205]
< 5 µM | < 5 µM | – | CCOC(=O)N1CCN(CC(=O)Nc2nc(-c3ccc4c(c3)CCN4C(=O)c3ccccc3C)c(C)s2)CC1 [Compound 228]
5 to 25 µM | < 5 µM | – | CC(=O)Nc1nc(-c2ccc3c(c2)CCN3C(=O)c2ccccc2C)c(C)s1 [Compound 11]
< 5 µM | > 25 µM | – | O=C(Nc1ncc(Cc2ccc(C(F)(F)F)cc2)s1)c1ccn(-c2cccc([N+](=O)[O-])c2)n1 [Compound 117]
< 5 µM | < 5 µM | – | COc1ccc(CC(=O)Nc2nc(-c3ccc4c(c3)CCN4C(=O)c3cccnc3C)c(C)s2)cc1 [Compound 196]
5 to 25 µM | 5 to 25 µM | – | Cc1ccccc1Cc1cnc(NC(=O)c2ccn(-c3ccccc3)n2)s1 [Compound 214]
< 5 µM | > 25 µM | – | COCCN(C)S(=O)(=O)c1ccc(NC(=O)c2ccc(CN3CCc4ccccc4C3)cc2)cc1 [compound 174]
